Several values for one entry are separate records, joined by “and”; a condition that tells them apart may be missing. Equal values may be shown once.
Biological target: T1, recombinant human mGluR4a receptors (Homo sapiens, UniProt Q14833)
T1 construct: expressed in transfected cells
T1 sequence (Q14833 33-912): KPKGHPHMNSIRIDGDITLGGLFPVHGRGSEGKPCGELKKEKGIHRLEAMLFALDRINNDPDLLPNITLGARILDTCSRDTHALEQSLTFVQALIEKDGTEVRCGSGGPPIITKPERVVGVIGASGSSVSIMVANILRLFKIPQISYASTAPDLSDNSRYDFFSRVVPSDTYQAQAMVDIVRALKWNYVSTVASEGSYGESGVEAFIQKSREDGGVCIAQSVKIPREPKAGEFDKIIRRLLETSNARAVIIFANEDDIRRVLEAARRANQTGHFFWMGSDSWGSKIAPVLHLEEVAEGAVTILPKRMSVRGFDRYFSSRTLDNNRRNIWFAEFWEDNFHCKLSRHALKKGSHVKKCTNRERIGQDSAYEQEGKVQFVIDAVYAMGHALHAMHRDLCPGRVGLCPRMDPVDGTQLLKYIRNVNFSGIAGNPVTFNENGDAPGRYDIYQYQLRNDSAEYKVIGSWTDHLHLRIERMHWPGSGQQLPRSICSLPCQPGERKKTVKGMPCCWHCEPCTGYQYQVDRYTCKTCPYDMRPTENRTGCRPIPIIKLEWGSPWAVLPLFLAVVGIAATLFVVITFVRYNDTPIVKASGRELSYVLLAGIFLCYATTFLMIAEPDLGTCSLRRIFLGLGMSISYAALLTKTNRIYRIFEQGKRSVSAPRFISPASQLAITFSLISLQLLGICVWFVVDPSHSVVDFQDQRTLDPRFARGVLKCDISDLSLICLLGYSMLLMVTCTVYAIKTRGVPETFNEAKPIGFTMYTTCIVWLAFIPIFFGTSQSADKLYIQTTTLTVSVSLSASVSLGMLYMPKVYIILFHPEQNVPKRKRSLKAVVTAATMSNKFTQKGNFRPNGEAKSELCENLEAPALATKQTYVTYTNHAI
Experiment: mGluR4 assay on HEK-expressing human mGluR4 (fluorescent cell based Ca2+ mobilization assay, FLIPR)
Settings: HEK-293 cells expressing hmGluR4; enhancement of EC25 glutamate response; mean of at least three independent experiments in duplicate; read-out: Ca^2+ Flux (mean EC50)
Text: mGluR4 Assay on HEK-Expressing Human mGluR4 The compounds of the present invention are positive allosteric modulators of mGluR4 receptor. Their activity was examined on recombinant human mGluR4a receptors by detecting changes in intracellular Ca^2+ concentration, using the fluorescent Ca^2+-sensitive dye Fluo4-(AM) and a Fluorometric Imaging Plate Reader (FLIPR, Molecular Devices, Sunnyvale, Calif.). The cDNA encoding the human metabotropic glutamate receptor (hmGluR4), (accession number NM_000841.1, NCBI Nucleotide database browser), was subcloned into an expression vector containing also the hygromycin resistance gene. In parallel, the cDNA encoding a G protein allowing redirection of the activation signal to intracellular calcium flux was subcloned into a different expression vector containing also the puromycin resistance gene. Transfection of both these vectors into HEK293 cells with PolyFect reagent (Qiagen) according to supplier's protocol, and hygromycin and puromycin treatment allowed selection of antibiotic resistant cells which had integrated stably one or more copies of the plasmids. Positive cellular clones expressing hmGluR4 were identified in a functional assay measuring changes in calcium fluxes in response to glutamate or selective known mGluR4 orthosteric agonists and antagonists. HEK-293 cells expressing hmGluR4 were maintained in media containing DMEM, dialyzed Fetal Calf Serum (10%), Glutamax™ (2 mM), Penicillin (100 units/mL), Streptomycin (100 μg/mL), Geneticin (100 μg/mL) and Hygromycin-B (40 μg/mL) and puromycin (1 μg/mL) at 37° C./5% CO2. Human mGluR4HEK-293 cells were plated out 24 hours prior to FLIPR^384 assay in black-walled, clear-bottomed, poly-L-ornithine-coated 384-well plates at a density of 25,000 cells/well in a glutamine/glutamate free DMEM medium containing foetal bovine serum (10%), penicillin (100 units/mL) and streptomycin (100 μg/mL) at 37° C./5% CO2. On the day of the assay, the medium was aspirated and the cells were loaded with a 3 μM solution of Fluo4-AM (LuBioScience, Lucerne, Switzerland) in 0.03% pluronic acid. After 1 hour at 37° C./5% CO2, the non incorporated dye was removed by washing cell plate with the assay buffer and the cells were left in the dark at room temperature for […] before testing. All assays were performed in a pH 7.4 buffered-solution containing 20 mM HEPES, 143 mM NaCl, 6 mM KCl, 1 mM MgSO4, 1 mM CaCl2, 0.125 mM sulfapyrazone and 0.1% glucose. After 10 s of basal fluorescence recording, various concentrations of the compounds of the invention were added to the cells. Changes in fluorescence levels were first monitored for 180 s in order to detect any agonist activity of the compounds. Then the cells were stimulated by an EC25 glutamate concentration for an additional 110 s in order to measure enhancing activities of the compounds of the invention. EC25 glutamate concentration is the concentration giving 25% of the maximal glutamate response. The concentration-response curves of representative compounds of the present invention were generated using the Prism GraphPad software (Graph Pad Inc, San Diego, USA). The curves were fitted to a four-parameter logistic equation: (Y=Bottom+(Top−Bottom)/(1+10^((Log EC50−X)*Hill Slope) allowing the determination of EC50 values. The Table 3 below represents the mean EC50 obtained from at least three independent experiments of selected molecules performed in duplicate.
With `c1ccc(Nc2csc(-c3cn[nH]c3)n2)nc1` [Compound 1-1, 2-(1H-Pyrazol-4-yl)-N-(pyridin-2-yl)thiazol-4-amine] the EC50 was less than 100 nM. In the case of `c1ccc(Nc2nsc(-c3cn[nH]c3)n2)nc1` [Compound 1-2, 5-(1H-Pyrazol-4-yl)-N-(pyridin-2-yl)-1,2,4-thiadiazol-3-amine], the EC50 is reported as 100 to 1000 nM. Molecule `Fc1cccc(Nc2csc(-c3cn[nH]c3)n2)n1` [Compound 1-3, N-(6-Fluoropyridin-2-yl)-2-(1H-pyrazol-4-yl)thiazol-4-amine] has an EC50 of less than 100 nM. With `Cc1ccnc(Nc2csc(-c3cn[nH]c3)n2)n1` [Compound 1-4, N-(4-Methylpyrimidin-2-yl)-2-(1H-pyrazol-4-yl)thiazol-4-amine] the EC50 was 100 to 1000 nM. `COc1ccnc(Nc2csc(-c3cn[nH]c3)n2)n1` [Compound 1-5, N-(4-Methoxypyrimidin-2-yl)-2-(1H-pyrazol-4-yl)thiazol-4-amine] gave an EC50 of 100 to 1000 nM. For `Cc1cccc(Nc2csc(-c3cn[nH]c3)n2)n1` [Compound 1-6, N-(6-Methylpyridin-2-yl)-2-(1H-pyrazol-4-yl)thiazol-4-amine], the EC50 was 100 to 1000 nM. `c1cnc(Nc2csc(-c3cn[nH]c3)n2)nc1` [Compound 1-7, 2-(1H-Pyrazol-4-yl)-N-(pyrimidin-2-yl)thiazol-4-amine] showed an EC50 of less than 100 nM. `FC(F)(F)c1n[nH]cc1-c1nc(Nc2ccccn2)cs1` [Compound 1-8, N-(Pyridin-2-yl)-2-(3-(trifluoromethyl)-1H-pyrazol-4-yl)thiazol-4-amine] gave an EC50 of 100 to 1000 nM. For `c1ccc(Nc2csc(-c3c[nH]nc3C3CC3)n2)nc1` [Compound 1-9, 2-(3-Cyclopropyl-1H-pyrazol-4-yl)-N-(pyridin-2-yl)thiazol-4-amine], the EC50 was less than 100 nM. For `c1cnc(Nc2csc(-c3c[nH]nc3C3CC3)n2)nc1` [Compound 1-10, 2-(3-Cyclopropyl-1H-pyrazol-4-yl)-N-(pyrimidin-2-yl)thiazol-4-amine], the EC50 was less than 100 nM. Work on `FC(F)(F)c1n[nH]cc1-c1nc(Nc2ncccn2)cs1` [Compound 1-11, N-(Pyrimidin-2-yl)-2-(3-(trifluoromethyl)-1H-pyrazol-4-yl)thiazol-4-amine] yielded an EC50 of less than 100 nM.

Test system: not given
Experiment: not given
Settings: not given
In the case of `c1ccc(Nc2csc(-c3cn[nH]c3)n2)nc1` [Compound 1-1, 2-(1H-Pyrazol-4-yl)-N-(pyridin-2-yl)thiazol-4-amine], the melting point is reported as 207 to 209 °C and 209 to 210 °C. `Fc1cccc(Nc2csc(-c3cn[nH]c3)n2)n1` [Compound 1-3, N-(6-Fluoropyridin-2-yl)-2-(1H-pyrazol-4-yl)thiazol-4-amine] showed a melting point of 238 to 240 °C. `Cc1ccnc(Nc2csc(-c3cn[nH]c3)n2)n1` [Compound 1-4, N-(4-Methylpyrimidin-2-yl)-2-(1H-pyrazol-4-yl)thiazol-4-amine] showed a melting point of 230 to 232 °C. Molecule `COc1ccnc(Nc2csc(-c3cn[nH]c3)n2)n1` [Compound 1-5, N-(4-Methoxypyrimidin-2-yl)-2-(1H-pyrazol-4-yl)thiazol-4-amine] has a melting point of 250 to 252 °C. For `c1cnc(Nc2csc(-c3cn[nH]c3)n2)nc1` [Compound 1-7, 2-(1H-Pyrazol-4-yl)-N-(pyrimidin-2-yl)thiazol-4-amine], the melting point was 217 °C (dec.). `FC(F)(F)c1n[nH]cc1-c1nc(Nc2ccccn2)cs1` [Compound 1-8, N-(Pyridin-2-yl)-2-(3-(trifluoromethyl)-1H-pyrazol-4-yl)thiazol-4-amine] showed a melting point of 204 to 206 °C. Molecule `c1ccc(Nc2csc(-c3c[nH]nc3C3CC3)n2)nc1` [Compound 1-9, 2-(3-Cyclopropyl-1H-pyrazol-4-yl)-N-(pyridin-2-yl)thiazol-4-amine] has a melting point of 141.3 °C. With `c1cnc(Nc2csc(-c3c[nH]nc3C3CC3)n2)nc1` [Compound 1-10, 2-(3-Cyclopropyl-1H-pyrazol-4-yl)-N-(pyrimidin-2-yl)thiazol-4-amine] the melting point was 241 °C.
